Structures can show the parent of a compound that is named as a salt. Where two headings read alike, the source gives them in different places.
Experiments:
[1] = biological target: EGFR L858R (Homo sapiens, UniProt P00533, L858R); assay: HTRF-based EGFR biochemical assay (L858R); conditions: 100 μM ATP, enzyme 0.1 nM
Protocol: (§1) EGFR biochemical activity measurements were carried out using the homogeneous time-resolved fluorescence (HTRF) assay (Cisbio). Inhibitors and DMSO normalizations were first dispensed to empty black low-volume 384-well plates (Corning) with D300 digital liquid dispenser (HP). All reactions were carried out at room temperature and solutions were added to plates with a Multidrop Combi Reagent Dispenser (ThermoFisher). The reaction mixture (10 μL final volume) contained 1 μM tyrosine kinase peptide-biotin substrate and mutant EGFR in a reaction buffer (50 mM HEPES pH 7.0, 5 mM MgCl2, 1 mM MnCl2, 0.01% BSA, 2 mM TCEP, 0.1 mM NaVO4). […] Enzyme reaction solution (2× concentrations, 5 μL) was added to 384-well plates containing compounds and incubated for 30 mins. Enzyme reactions were initiated with the addition of 5 μL of ATP to a final concentration of 100 μM and reacted for 20 mins. Reactions were quenched with the addition of 10 μL of phospho-tyrosine antibody-Europium(III) cryptate (1-to-180 volume ratio) and Streptavidin-XL665 (46.7 nM) in EDTA-containing detection buffer, then incubated at room temperature for 1 hour, and read with a PHERAstar plate reader (excitation=337 nm, emission=620 nm and 665 nm).

[2] = biological target: EGFR L858R/T790M (Homo sapiens, UniProt P00533, L858R/T790M); assay: HTRF-based EGFR biochemical assay (L858R/T790M); conditions: 100 μM ATP, enzyme 0.02 nM
Protocol: as §1, with “mins.” for “mins. Reactions were quenched with the addition of 10 μL of phospho-tyrosine antibody-Europium(III) cryptate (1-to-180 volume ratio) and Streptavidin-XL665 (46.7 nM) in EDTA-containing detection buffer, then incubated at room temperature for 1 hour, and read with a PHERAstar plate reader (excitation=337 nm, emission=620 nm and 665 nm).”

[3] = biological target: EGFR L858R/T790M mutant Ba/F3 cells (Homo sapiens, UniProt P00533, T790M/L858R, cells depend on it); assay: Ba/F3 cell proliferation (Cell Titer Glo); format: cell-based, murine; conditions: 72 hours
Description: All cell lines were maintained in RPMI 1640 (Cellgro; Mediatech Inc., Herndon, CA) supplemented with 10% FBS, 100 units/mL penicillin, 100 units/mL streptomycin. The EGFR I941R mutation was introduced via site directed mutagenesis using the Quick Change Site-Directed Mutagenesis kit (Stratagene; La Jolla, CA) according to the manufacturer's instructions. All constructs were confirmed by DNA sequencing. The constructs were shuttled into the retroviral vector JP1540 using the Cre-recombination system (Agilent Technologies, Santa Clara, CA). Ba/F3 cells were then infected with retrovirus per standard protocols, as described previously (Zhou, et al, Nature 2009). Stable clones were obtained by selection in puromycin (2 μg/ml).
Growth and inhibition of growth was assessed by the Cell Titer Glo assay (Promega, Madison, WI) and was performed according to the manufacturer's instructions. The Cell Titer Glo assay is a luminescence-based method used to determine the number of viable cells based on quantitation of the ATP present, which is directly proportional to the amount of metabolically active cells present. […] All experimental points were set up in triplicates in 384-well plates and all experiments were repeated at least three times. […] The curves were fitted using a non-linear regression model with a sigmoidal dose response.

[4] = in combination with 1 μg/ml cetuximab, read-out: Cell IC50 BaF3 L858R/T790M compound + cetuximab
[5] = single agent, read-out: Cell IC50 EGFR BaF3 L858R/T790M

Sequence of EGFR L858R/T790M (P00533 25-1210 T790M/L858R): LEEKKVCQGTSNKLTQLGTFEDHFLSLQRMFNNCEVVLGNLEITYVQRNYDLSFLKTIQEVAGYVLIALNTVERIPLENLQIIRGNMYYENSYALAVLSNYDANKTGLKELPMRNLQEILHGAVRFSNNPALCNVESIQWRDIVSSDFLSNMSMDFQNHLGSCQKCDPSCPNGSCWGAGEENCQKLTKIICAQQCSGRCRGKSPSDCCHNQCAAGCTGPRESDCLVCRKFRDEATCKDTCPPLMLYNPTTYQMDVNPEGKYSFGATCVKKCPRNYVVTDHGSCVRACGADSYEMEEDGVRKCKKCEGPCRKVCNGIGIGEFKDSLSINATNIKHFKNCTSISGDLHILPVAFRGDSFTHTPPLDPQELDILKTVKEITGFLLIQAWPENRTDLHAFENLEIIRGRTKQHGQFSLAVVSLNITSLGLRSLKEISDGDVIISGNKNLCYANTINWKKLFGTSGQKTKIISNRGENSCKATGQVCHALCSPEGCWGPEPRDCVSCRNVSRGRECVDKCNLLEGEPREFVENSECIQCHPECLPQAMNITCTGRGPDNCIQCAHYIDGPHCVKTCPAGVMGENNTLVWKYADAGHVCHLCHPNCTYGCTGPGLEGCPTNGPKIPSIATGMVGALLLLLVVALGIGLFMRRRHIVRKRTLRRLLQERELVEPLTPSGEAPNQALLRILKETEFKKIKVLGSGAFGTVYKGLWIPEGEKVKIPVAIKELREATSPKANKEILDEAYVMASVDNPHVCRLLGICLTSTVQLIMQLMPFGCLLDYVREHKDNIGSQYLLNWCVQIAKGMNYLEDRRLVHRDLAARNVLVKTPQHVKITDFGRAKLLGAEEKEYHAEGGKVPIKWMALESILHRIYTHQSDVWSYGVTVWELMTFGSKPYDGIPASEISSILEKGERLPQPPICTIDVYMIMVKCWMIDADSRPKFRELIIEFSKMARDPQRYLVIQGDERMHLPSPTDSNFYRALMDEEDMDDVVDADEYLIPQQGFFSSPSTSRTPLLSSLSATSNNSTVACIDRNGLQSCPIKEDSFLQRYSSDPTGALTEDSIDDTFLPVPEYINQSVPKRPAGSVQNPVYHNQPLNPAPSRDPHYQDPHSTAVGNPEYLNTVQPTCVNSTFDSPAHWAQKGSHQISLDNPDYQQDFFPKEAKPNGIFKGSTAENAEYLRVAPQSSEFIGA
Sequence of EGFR L858R/T790M mutant Ba/F3 cells (P00533 whole entry T790M/L858R): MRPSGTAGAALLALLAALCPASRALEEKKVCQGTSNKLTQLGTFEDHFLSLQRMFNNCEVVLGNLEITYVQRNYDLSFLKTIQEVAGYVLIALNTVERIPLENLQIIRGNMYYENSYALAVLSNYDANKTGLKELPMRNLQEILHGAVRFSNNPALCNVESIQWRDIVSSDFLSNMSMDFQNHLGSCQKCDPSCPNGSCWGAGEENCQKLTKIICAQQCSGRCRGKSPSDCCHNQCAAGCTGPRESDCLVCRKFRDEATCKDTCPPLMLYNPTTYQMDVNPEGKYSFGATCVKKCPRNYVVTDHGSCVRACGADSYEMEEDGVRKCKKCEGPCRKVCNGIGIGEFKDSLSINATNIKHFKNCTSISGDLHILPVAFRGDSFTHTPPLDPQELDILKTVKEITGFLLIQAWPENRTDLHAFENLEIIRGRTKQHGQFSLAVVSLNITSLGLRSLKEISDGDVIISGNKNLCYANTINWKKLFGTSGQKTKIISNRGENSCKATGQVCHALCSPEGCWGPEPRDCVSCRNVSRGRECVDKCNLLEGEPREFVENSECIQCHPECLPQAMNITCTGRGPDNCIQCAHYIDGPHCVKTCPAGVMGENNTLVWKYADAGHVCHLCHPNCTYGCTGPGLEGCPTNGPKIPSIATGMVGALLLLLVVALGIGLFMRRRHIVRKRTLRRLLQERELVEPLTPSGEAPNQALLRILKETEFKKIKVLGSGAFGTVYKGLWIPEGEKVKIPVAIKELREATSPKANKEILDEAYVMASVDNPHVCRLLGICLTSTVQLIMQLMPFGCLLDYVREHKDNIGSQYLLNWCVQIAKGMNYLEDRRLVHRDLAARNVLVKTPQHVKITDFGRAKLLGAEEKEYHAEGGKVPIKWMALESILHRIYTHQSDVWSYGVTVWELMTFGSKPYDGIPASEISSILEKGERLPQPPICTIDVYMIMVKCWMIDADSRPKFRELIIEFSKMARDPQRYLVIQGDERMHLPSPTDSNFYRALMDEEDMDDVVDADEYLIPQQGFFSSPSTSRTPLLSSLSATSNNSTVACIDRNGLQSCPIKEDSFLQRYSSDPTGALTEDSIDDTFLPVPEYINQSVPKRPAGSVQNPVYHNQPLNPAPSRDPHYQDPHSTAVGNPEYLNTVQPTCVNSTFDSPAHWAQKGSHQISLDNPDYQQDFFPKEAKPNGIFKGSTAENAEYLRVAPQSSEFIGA
Sequence of EGFR L858R (P00533 25-1210 L858R): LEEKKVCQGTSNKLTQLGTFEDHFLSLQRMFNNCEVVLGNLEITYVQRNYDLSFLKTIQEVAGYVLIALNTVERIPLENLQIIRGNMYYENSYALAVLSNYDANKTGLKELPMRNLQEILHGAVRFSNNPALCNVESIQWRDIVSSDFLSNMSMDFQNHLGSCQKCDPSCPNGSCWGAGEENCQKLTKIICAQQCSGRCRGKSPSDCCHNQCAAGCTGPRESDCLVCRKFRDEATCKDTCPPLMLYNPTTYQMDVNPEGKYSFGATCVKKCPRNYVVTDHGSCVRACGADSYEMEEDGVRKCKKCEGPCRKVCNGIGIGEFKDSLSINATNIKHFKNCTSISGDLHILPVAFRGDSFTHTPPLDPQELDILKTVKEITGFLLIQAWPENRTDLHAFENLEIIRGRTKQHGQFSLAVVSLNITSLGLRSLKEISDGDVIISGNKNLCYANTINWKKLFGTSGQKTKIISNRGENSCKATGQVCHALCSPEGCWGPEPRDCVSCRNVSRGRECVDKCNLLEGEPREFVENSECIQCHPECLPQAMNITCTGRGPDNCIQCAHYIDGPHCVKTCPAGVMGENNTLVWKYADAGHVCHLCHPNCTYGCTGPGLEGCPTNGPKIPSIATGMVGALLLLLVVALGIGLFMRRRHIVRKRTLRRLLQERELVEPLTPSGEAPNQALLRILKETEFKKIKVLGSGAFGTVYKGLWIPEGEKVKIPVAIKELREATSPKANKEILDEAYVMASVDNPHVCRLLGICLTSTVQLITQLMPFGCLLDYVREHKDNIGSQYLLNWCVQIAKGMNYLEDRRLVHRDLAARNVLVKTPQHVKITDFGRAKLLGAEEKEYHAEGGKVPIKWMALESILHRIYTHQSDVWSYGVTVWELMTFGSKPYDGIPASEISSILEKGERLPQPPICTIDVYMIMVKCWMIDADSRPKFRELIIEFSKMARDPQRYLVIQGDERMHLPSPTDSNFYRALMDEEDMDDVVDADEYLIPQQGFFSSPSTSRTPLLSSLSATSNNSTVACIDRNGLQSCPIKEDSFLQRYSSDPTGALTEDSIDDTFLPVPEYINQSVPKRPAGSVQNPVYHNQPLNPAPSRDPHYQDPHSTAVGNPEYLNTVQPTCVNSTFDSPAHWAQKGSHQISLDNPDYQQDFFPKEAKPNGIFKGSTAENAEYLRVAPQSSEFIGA

Row | IC50 [1] [nM] | IC50 [2] [nM] | GI50 [3, 4] [nM] | GI50 [3, 5] [nM] | SMILES
1 | 1 | 0.2 | 2 | 230 | CN1CCC(c2ccc(-c3ccc4ncn(C(C(=O)Nc5ccccn5)c5cc(F)ccc5O)c(=O)c4c3)cc2)CC1 (centres unmarked) [Compound 082, 2-(5-Fluoro-2-hydroxyphenyl)-2-(6-(4-(1-methylpiperidin-4-yl)phenyl)-4-oxoquinazolin-3(4H)-yl)-N-(pyridin-2-yl)acetamide; hydrochloride]
2 | 264 | 79 | 1500 | 3940 | Cc1nc2cc(-c3ccc(N4CCN(C)CC4)cc3)ccc2c(=O)n1C(C(=O)Nc1nccs1)c1ccccc1 (centres unmarked) [Compound 055, 2-(2-Methyl-7-(4-(4-methylpiperazin-1-yl)phenyl)-4-oxoquinazolin-3(4H)-yl)-2-phenyl-N-(thiazol-2-yl)-acetamide]
3 | 7 | 0.5 | 28 | 2810 | CN1CCC(c2ccc(-c3ccc4ncn(C(C(=O)Nc5nccs5)c5cccc(F)c5)c(=O)c4n3)cc2)CC1 (centres unmarked) [Compound 069, 2-(3-Fluorophenyl)-2-(6-(4-(1-methylpiperidin-4-yl)phenyl)-4-oxo-pyrido[3,2-d]pyrimidin-3(4H)-yl)-N-(thiazol-2-yl)acetamide]
4 | 4 | 0.4 | 21 | 1580 | CN1CCC(c2ccc(-c3ccc4ncn(C(C(=O)Nc5ccccn5)c5cccc(F)c5)c(=O)c4c3)cc2)CC1 (centres unmarked) [Compound 032, 2-(3-Fluorophenyl)-2-(6-(4-(1-methyl-piperidin-4-yl)phenyl)-4-oxo-quinazolin-3(4H)-yl)-N-(pyridin-2-yl)-acetamide]
5 | 103 | 16 | 970 | 2900 | CN1CCN(c2ccc(-c3cc4ncn(C(C(=O)Nc5nccs5)c5ccccc5)c(=O)c4cc3F)cc2)CC1 (centres unmarked) [Compound 021, 2-(6-Fluoro-7-(4-(4-methylpiperazin-1-yl)phenyl)-4-oxoquinazolin-3(4H)-yl)-2-phenyl-N-(thiazol-2-yl)acetamide]
6 | 6 | 3 | 66 | 5770 | CN1CCN(c2ccc(-c3ccc4ncn(C(C(=O)Nc5nccs5)c5c(O)cccc5F)c(=O)c4c3)cc2)CC1 (centres unmarked) [Compound 085, 2-(2-Fluoro-6-hydroxyphenyl)-2-(6-(4-(4-methylpiperazin-1-yl)phenyl)-4-oxoquinazolin-3(4H)-yl)-N-(thiazol-2-yl)acetamide]
7 | 6 | 0.6 | 22 | 2350 | CN1CCC(c2ccc(-c3ccc4ncn(C(C(=O)Nc5ccccn5)c5cccc(F)c5)c(=O)c4c3F)cc2)CC1 (centres unmarked) [Compound 074, 2-(5-Fluoro-6-(4-(1-methylpiperidin-4-yl)phenyl)-4-oxoquinazolin-3-(4H)-yl)-2-(3-fluorophenyl)-N-(pyridin-2-yl)acetamide]
8 | 50 | 7 | 700 | 4730 | CN1CCN(c2ccc(-c3cnc4c(=O)n(C(C(=O)Nc5nccs5)c5ccccc5)cnc4c3)cc2)CC1 (centres unmarked) [Compound 057, 2-(7-(4-(4-Methylpiperazin-1-yl)-phenyl)-4-oxopyrido[3,2-d]-pyrimidin-3(4H)-yl)-2-phenyl-N-(thiazol-2-yl)acetamide]
9 | 101 | 11 | 350 | > 10000 | O=C(Nc1nccs1)C(c1ccccc1)n1cc(F)c2ccc(Br)cc2c1=O (centres unmarked) [Compound 035, 2-(7-Bromo-4-fluoro-1-oxo-isoquinolin-2(1H)-yl)-2-phenyl-N-(thiazol-2-yl)acetamide]
10 | 32 | 7 | 410 | 3970 | CN1CCC(c2ccc(-c3cnc4c(=O)n(C(C(=O)Nc5nccs5)c5ccccc5)cnc4c3)cc2)CC1 (centres unmarked) [Compound 056, 2-(7-(4-(1-Methylpiperidin-4-yl)phenyl)-4-oxopyrido[3,2-d]pyrimidin-3(4H)-yl)-2-phenyl-N-(thiazol-2-yl)acetamide]
11 | 1260 | 62 | 8300 | > 10000 | O=C(Nc1nccs1)C(c1ccccc1)n1cnc2cc(Br)ccc2c1=O (centres unmarked) [Compound 001, 2-(7-Bromo-4-oxoquinazolin-3(4H)-yl)-2-phenyl-N-(thiazol-2-yl)acetamide]
12 | 7 | 3 | 62 | 1270 | CN1CCN(c2ccc(-c3ccc4c(=O)n(C(C(=O)Nc5nccs5)c5ccccc5)ccc4c3)cc2)CC1 (centres unmarked) [Compound 017, 2-(6-(4-(4-Methylpiperazin-1-yl)-phenyl)-1-oxoisoquinolin-2(1H)-yl)-2-phenyl-N-(thiazol-2-yl)acetamide]
13 | 195 | 16 | 350 | > 10000 | O=C(Nc1nccs1)C(c1cccc(F)c1)n1cnc2ccc(Br)cc2c1=O (centres unmarked) [Compound 011, 2-(6-Bromo-4-oxoquinazolin-3(4H)-yl)-2-(3-fluorophenyl)-N-(thiazol-2-yl)acetamide]
14 | 8 | 1 | 620 | 4200 | COc1cccc(F)c1C(C(=O)Nc1nccs1)n1cnc2ccc(-c3ccc(C4CCN(C)CC4)cc3)cc2c1=O (centres unmarked) [Compound 078]
15 | 91 | 18 | 560 | 3450 | CN1CCN(c2ccc(-c3ccc4c(=O)n(C(C(=O)Nc5nccs5)c5cccc(F)c5)cnc4c3)cc2)CC1 (centres unmarked) [Compound 029, 2-(3-Fluorophenyl)-2-(7-(4-(4-methyl-piperazin-1-yl)phenyl)-4-oxo-quinazolin-3(4H)-yl)-N-(thiazol-2-yl)-acetamide]
16 | 5 | 0.7 | 18 | 1560 | CN1CCC(c2ccc(-c3ccc4ncn(C(C(=O)Nc5nccs5)c5ccccn5)c(=O)c4c3F)cc2)CC1 (centres unmarked) [Compound 068, 2-(5-Fluoro-6-(4-(1-methylpiperidin-4-yl)phenyl)-4-oxoquinazolin-3(4H)-yl)-2-(pyridin-2-yl)-N-(thiazol-2-yl)-acetamide]
17 | > 1000 | 64 | 2500 | > 10000 | O=C(Nc1nccs1)C(c1cccc(F)c1)n1ccc2cc(Br)ccc2c1=O (centres unmarked) [Compound 008, 2-(6-Bromo-1-oxoisoquinolin-2(1H)-yl)-2-(3-fluorophenyl)-N-(thiazol-2-yl)acetamide]

Row | SMILES | IC50 [1] [nM] | IC50 [2] [nM] | GI50 [3, 4] [nM] | GI50 [3, 5] [nM]
18 | CN1CCN(c2ccc(-c3ccc4c(=O)n(C(C(=O)Nc5nccs5)c5ccccc5)ncc4c3)cc2)CC1 (centres unmarked) [Compound 027, 2-(6-(4-(4-Methylpiperazin-1-yl)-phenyl)-1-oxophthalazin-2(1H)-yl)-2-phenyl-N-(thiazol-2-yl)acetamide] | 209 | 18 | 1700 | 3460
19 | CN1CCC(c2ccc(-c3ccc4c(=O)n(C(C(=O)Nc5nccs5)c5ccccc5)ncc4c3)cc2)CC1 (centres unmarked) [Compound 026, 2-(6-(4-(1-Methylpiperidin-4-yl)-phenyl)-1-oxophthalazin-2(1H)-yl)-2-phenyl-N-(thiazol-2-yl)acetamide] | 67 | 10 | 560 | 1220
20 | CN1CCN(c2ccc(-c3ccc4c(=O)n(C(C(=O)Nc5nccs5)c5ccccc5)cnc4c3)cc2)CC1 (centres unmarked) [Compound 013, 2-(7-(4-(4-Methylpiperazin-1-yl)-phenyl)-4-oxoquinazolin-3(4H)-yl)-2-phenyl-N-(thiazol-2-yl)acetamide] | 14 | 3 | 380 | 2000

Source: US12622909B2, “Allosteric EGFR inhibitors and methods of use thereof” (Dana-Farber Cancer Institute, Inc., priority 2019, dated 2026)
